Reference: publication PMC2248166, “Quantitative peptide binding motifs for 19 human and mouse MHC class I molecules derived using positional scanning combinatorial peptide libraries” (Immunome Research, 2008)
Where a SMILES comes first, the peptide text is derived from it.

Target: HLA A*3001 (Homo sapiens, UniProt P04439, D140H/D185E/E176W/F33S/G80R/H175R/K168Q/R138E/R41S)
Assay: biochemical
Format: binding

HLA A*3001, sequence (P04439 25-365 limits assumed, stated change not applied): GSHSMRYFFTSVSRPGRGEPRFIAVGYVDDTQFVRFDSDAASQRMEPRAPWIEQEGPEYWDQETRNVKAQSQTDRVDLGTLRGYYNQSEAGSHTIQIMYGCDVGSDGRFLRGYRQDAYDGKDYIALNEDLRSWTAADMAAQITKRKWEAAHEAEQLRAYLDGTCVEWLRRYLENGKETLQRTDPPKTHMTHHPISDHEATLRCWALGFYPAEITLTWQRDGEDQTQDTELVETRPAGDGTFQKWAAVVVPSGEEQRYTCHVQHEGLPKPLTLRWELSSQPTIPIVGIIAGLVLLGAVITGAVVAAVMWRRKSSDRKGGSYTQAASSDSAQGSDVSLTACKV

Compound	IC50
CC[C@H](C)[C@H](NC(=O)[C@@H](NC(=O)[C@@H](N)CCCCN)[C@@H](C)O)C(=O)N[C@@H](Cc1c[nH]c2ccccc12)C(=O)N[C@@H](CCC(=O)O)C(=O)N[C@H](C(=O)N1CCC[C@H]1C(=O)N[C@@H](CCC(N)=O)C(=O)N[C@@H](CCCCN)C(=O)O)[C@@H](C)CC [3102.0190] (H-KTIWEIPQK-OH)	12 nM
CC[C@H](C)[C@H](NC(=O)[C@@H](NC(=O)[C@@H](N)CCCCN)C(C)C)C(=O)N[C@H](C(=O)N[C@@H](CCCNC(=N)N)C(=O)N[C@@H](CC(N)=O)C(=O)N[C@@H](CC(C)C)C(=O)N[C@@H](CC(N)=O)C(=O)N[C@@H](CCCCN)C(=O)O)C(C)C [3102.0191] (H-KVIVRNLNK-OH)	1.4 nM
CC(C)C[C@H](NC(=O)[C@H](Cc1c[nH]c2ccccc12)NC(=O)[C@H](CCCCN)NC(=O)[C@@H](NC(=O)[C@@H](N)CCCCN)C(C)C)C(=O)N[C@@H](CCC(N)=O)C(=O)N[C@@H](CC(N)=O)C(=O)N[C@@H](CO)C(=O)N[C@H](C(=O)O)C(C)C [3102.0194] (H-KVKWLQNSV-OH)	0.5 nM
CSCC[C@H](NC(=O)[C@@H]1CCCN1C(=O)[C@H](CC(C)C)NC(=O)[C@H](CO)NC(=O)[C@H](CCC(=O)O)NC(=O)[C@H](CCCCN)NC(=O)[C@H](CC(N)=O)NC(=O)[C@@H](N)CCCCN)C(=O)N[C@@H](CC(C)C)C(=O)O [3102.0195] (H-KNKESLPML-OH)	18 nM
CC[C@H](C)[C@H](NC(=O)[C@H](CO)NC(=O)[C@@H](NC(=O)[C@H](CCCCN)NC(=O)[C@H](CCCCN)NC(=O)[C@H](CCC(N)=O)NC(=O)[C@@H](N)CCCNC(=N)N)[C@@H](C)CC)C(=O)N[C@@H](CC(C)C)C(=O)N[C@H](C(=O)O)C(C)C [3102.0196] (H-RQKKISILV-OH)	0.36 nM
CC(C)[C@H](NC(=O)[C@@H](N)CCCNC(=N)N)C(=O)N[C@@H](Cc1c[nH]cn1)C(=O)N[C@@H](CC(=O)O)C(=O)N[C@H](C(=O)N[C@@H](CC(N)=O)C(=O)N[C@@H](C)C(=O)N[C@H](C(=O)N[C@@H](CCCCN)C(=O)O)[C@@H](C)O)[C@@H](C)O [3102.0197] (H-RVHDTNATK-OH)	7.7 nM
CC(C)C[C@H](NC(=O)[C@H](Cc1ccccc1)NC(=O)[C@@H](NC(=O)[C@H](Cc1ccc(O)cc1)NC(=O)[C@H](CCCNC(=N)N)NC(=O)[C@@H](NC(=O)[C@@H](N)CC(N)=O)C(C)C)C(C)C)C(=O)N[C@@H](Cc1ccc(O)cc1)C(=O)N[C@@H](CCCCN)C(=O)O [3102.0198] (H-NVRYVFLYK-OH)	9.9 nM
CC[C@H](C)[C@H](N)C(=O)N[C@@H](CO)C(=O)N[C@@H](CCCNC(=N)N)C(=O)N[C@@H](CC(N)=O)C(=O)N[C@@H](CCCCN)C(=O)N[C@@H](CC(N)=O)C(=O)N[C@H](C(=O)N[C@@H](Cc1ccccc1)C(=O)N[C@H](C(=O)O)C(C)C)[C@@H](C)CC [3102.0199] (H-ISRNKNIFV-OH)	7.3 nM
CC[C@H](C)[C@H](NC(=O)[C@H](CCCCN)NC(=O)[C@@H](NC(=O)CN)[C@@H](C)O)C(=O)N[C@@H](C)C(=O)N[C@@H](CC(C)C)C(=O)N[C@@H](CC(C)C)C(=O)N[C@@H](CCC(=O)O)C(=O)N[C@@H](CC(C)C)C(=O)O [3102.0200] (H-GTKIALLEL-OH)	1.3 nM
CC[C@H](C)[C@H](NC(=O)[C@H](CCCCN)NC(=O)[C@@H](NC(=O)[C@@H](N)CCCNC(=N)N)[C@@H](C)O)C(=O)N[C@H](C(=O)N[C@@H](CO)C(=O)N[C@@H](CC(C)C)C(=O)N1CCC[C@H]1C(=O)N[C@@H](CC(C)C)C(=O)O)[C@@H](C)O [3102.0201] (H-RTKITSLPL-OH)	0.087 nM
CC[C@H](C)[C@H](NC(=O)[C@H](C)NC(=O)[C@@H](NC(=O)[C@@H](NC(=O)[C@H](C)NC(=O)[C@H](Cc1ccccc1)NC(=O)[C@@H](NC(=O)[C@@H](N)CCCCN)[C@@H](C)O)[C@@H](C)CC)[C@@H](C)CC)C(=O)N[C@H](C(=O)O)C(C)C [3102.0202] (H-KTFAIIAIV-OH)	24 nM
CSCC[C@H](N)C(=O)N[C@@H](CO)C(=O)N[C@@H](CCCNC(=N)N)C(=O)N[C@@H](CCCNC(=N)N)C(=O)N[C@@H](Cc1ccc(O)cc1)C(=O)N[C@@H](CO)C(=O)N[C@@H](CCCNC(=N)N)C(=O)N[C@@H](CCC(=O)O)C(=O)N[C@@H](CCCCN)C(=O)O [3102.0203] (H-MSRRYSREK-OH)	1.3 nM
CC[C@H](C)[C@H](NC(=O)[C@H](C)NC(=O)[C@@H](N)CCCCN)C(=O)N[C@@H](CO)C(=O)N[C@@H](CC(N)=O)C(=O)N[C@@H](C)C(=O)N[C@@H](CCCNC(=N)N)C(=O)N[C@@H](CC(C)C)C(=O)N[C@@H](CCCCN)C(=O)O [3102.0204] (H-KAISNARLK-OH)	26 nM
CC[C@H](C)[C@H](NC(=O)[C@H](CCCNC(=N)N)NC(=O)[C@@H](NC(=O)[C@H](CC(=O)O)NC(=O)[C@H](CCCCN)NC(=O)[C@@H](NC(=O)[C@@H](N)CCCNC(=N)N)[C@@H](C)O)[C@@H](C)O)C(=O)N[C@@H](CCCCN)C(=O)N[C@@H](C)C(=O)O [3102.0205] (H-RTKDTRIKA-OH)	0.2 nM
CC[C@H](C)[C@H](NC(=O)[C@@H](N)CCCCN)C(=O)N[C@@H](CCCNC(=N)N)C(=O)N1CCC[C@H]1C(=O)N[C@H](C(=O)N[C@@H](CCCNC(=N)N)C(=O)N[C@@H](CO)C(=O)N[C@H](C(=O)N[C@@H](Cc1ccc(O)cc1)C(=O)O)C(C)C)[C@@H](C)O [3102.0206] (H-KIRPTRSVY-OH)	7.2 nM
CC[C@H](C)[C@H](NC(=O)[C@H](Cc1ccc(O)cc1)NC(=O)[C@H](C)NC(=O)[C@H](C)NC(=O)[C@H](Cc1c[nH]cn1)NC(=O)[C@H](CO)NC(=O)[C@H](CCCCN)NC(=O)[C@H](CO)NC(=O)[C@@H](N)CCSC)C(=O)O [3102.0207] (H-MSKSHAAYI-OH)	0.23 nM
CC(C)C[C@H](NC(=O)[C@@H](N)CCCNC(=N)N)C(=O)N[C@@H](CCCCN)C(=O)N[C@@H](CC(=O)O)C(=O)N[C@@H](Cc1ccc(O)cc1)C(=O)N[C@@H](CCC(N)=O)C(=O)N[C@@H](Cc1c[nH]cn1)C(=O)N[C@@H](Cc1ccccc1)C(=O)N[C@H](C(=O)O)C(C)C [3102.0208] (H-RLKDYQHFV-OH)	0.39 nM
CSCC[C@H](N)C(=O)NCC(=O)N[C@@H](CCCNC(=N)N)C(=O)N[C@@H](Cc1ccccc1)C(=O)NCC(=O)N[C@@H](Cc1ccc(O)cc1)C(=O)N[C@H](C(=O)N1CCC[C@H]1C(=O)N[C@@H](Cc1ccc(O)cc1)C(=O)O)C(C)C [3102.0212] (H-MGRFGYVPY-OH)	15 nM
CC[C@H](C)[C@H](NC(=O)[C@@H](N)CO)C(=O)N[C@@H](CCCCN)C(=O)N[C@@H](CCCNC(=N)N)C(=O)N[C@@H](CO)C(=O)N[C@@H](CC(N)=O)C(=O)N[C@H](C(=O)N[C@@H](Cc1ccccc1)C(=O)N[C@@H](C)C(=O)O)C(C)C [3102.0214] (H-SIKRSNVFA-OH)	3.6 nM
CC(C)C[C@H](NC(=O)[C@@H]1CCCN1C(=O)[C@H](Cc1c[nH]cn1)NC(=O)[C@@H](NC(=O)[C@H](CS)NC(=O)[C@H](CCCCN)NC(=O)[C@@H](NC(=O)[C@@H](N)CO)C(C)C)[C@@H](C)O)C(=O)N[C@H](C(=O)O)C(C)C [3102.0215] (H-SVKCTHPLV-OH)	0.97 nM
CC[C@H](C)[C@H](NC(=O)[C@H](CCCNC(=N)N)NC(=O)[C@@H]1CCCN1C(=O)[C@H](CO)NC(=O)[C@H](C)NC(=O)[C@H](CCCNC(=N)N)NC(=O)[C@H](CO)NC(=O)[C@@H](N)Cc1c[nH]cn1)C(=O)NCC(=O)O [3102.0216] (H-HSRASPRIG-OH)	0.93 nM
CSCC[C@H](NC(=O)[C@H](CC(C)C)NC(=O)[C@H](CCCNC(=N)N)NC(=O)[C@H](C)NC(=O)[C@@H](N)CC(N)=O)C(=O)N[C@@H](CCCNC(=N)N)C(=O)N[C@@H](C)C(=O)N[C@@H](CC(C)C)C(=O)N[C@@H](CCCCN)C(=O)O [3102.0218] (H-NARLMRALK-OH)	2.2 nM
CSCC[C@H](NC(=O)[C@H](Cc1ccc(O)cc1)NC(=O)[C@H](CC(N)=O)NC(=O)[C@H](Cc1ccc(O)cc1)NC(=O)[C@H](CO)NC(=O)[C@H](CCCCN)NC(=O)[C@@H](NC(=O)[C@@H](N)CCCCN)C(C)C)C(=O)N[C@@H](CC(C)C)C(=O)O [3102.0219] (H-KVKSYNYML-OH)	0.18 nM
CC(C)C[C@H](NC(=O)[C@@H](N)CCCNC(=N)N)C(=O)N[C@@H](CCCCN)C(=O)N[C@@H](CO)C(=O)N[C@@H](C)C(=O)N[C@H](C(=O)N[C@@H](CS)C(=O)N[C@@H](Cc1ccc(O)cc1)C(=O)N[C@@H](CCCCN)C(=O)O)C(C)C [3102.0220] (H-RLKSAVCYK-OH)	0.18 nM
C[C@@H](O)[C@H](N)C(=O)N[C@@H](Cc1ccccc1)C(=O)N[C@@H](CCCNC(=N)N)C(=O)N[C@@H](CCC(=O)O)C(=O)N[C@@H](CCCNC(=N)N)C(=O)N[C@@H](Cc1ccc(O)cc1)C(=O)N[C@@H](CO)C(=O)N[C@@H](Cc1ccc(O)cc1)C(=O)N[C@@H](CCCCN)C(=O)O [3102.0221] (H-TFRERYSYK-OH)	0.89 nM
CC[C@H](C)[C@H](NC(=O)[C@H](CC(N)=O)NC(=O)[C@@H]1CCCN1C(=O)[C@@H](NC(=O)[C@H](Cc1c[nH]cn1)NC(=O)[C@H](CC(N)=O)NC(=O)[C@H](CCCCN)NC(=O)[C@@H](NC(=O)[C@@H](N)CCCCN)C(C)C)[C@@H](C)CC)C(=O)O [3102.0222] (H-KVKNHIPNI-OH)	0.68 nM
C[C@H](NC(=O)[C@H](C)NC(=O)[C@H](CC(N)=O)NC(=O)[C@H](CCC(N)=O)NC(=O)[C@@H]1CCCN1C(=O)[C@H](CC(=O)O)NC(=O)[C@H](CCCNC(=N)N)NC(=O)[C@@H](NC(=O)[C@@H](N)Cc1c[nH]cn1)[C@@H](C)O)C(=O)O [3102.0224] (H-HTRDPQNAA-OH)	0.91 nM
CC[C@H](C)[C@H](NC(=O)[C@@H](NC(=O)[C@@H](N)CCSC)[C@@H](C)O)C(=O)N[C@@H](CCCNC(=N)N)C(=O)N[C@@H](CCC(=O)O)C(=O)N[C@@H](Cc1ccccc1)C(=O)N1CCC[C@H]1C(=O)N[C@@H](CCCNC(=N)N)C(=O)N[C@@H](CCCCN)C(=O)O [3102.0225] (H-MTIREFPRK-OH)	1.6 nM
CC[C@H](C)[C@H](NC(=O)[C@H](Cc1ccc(O)cc1)NC(=O)CNC(=O)CNC(=O)[C@@H](NC(=O)[C@H](Cc1ccccc1)NC(=O)[C@H](CCCNC(=N)N)NC(=O)[C@H](C)NC(=O)[C@@H](N)CCCNC(=N)N)[C@@H](C)CC)C(=O)O [3102.0226] (H-RARFIGGYI-OH)	0.26 nM
CC(C)C[C@H](NC(=O)[C@H](CCC(N)=O)NC(=O)CNC(=O)[C@H](CC(=O)O)NC(=O)[C@H](CCCNC(=N)N)NC(=O)[C@@H](NC(=O)[C@@H](N)[C@@H](C)O)C(C)C)C(=O)N[C@@H](CCC(=O)O)C(=O)N[C@H](C(=O)O)C(C)C [3102.0228] (H-TVRDGQLEV-OH)	13 nM
